Measured values reported in patent US8697739B2, “Bicyclic acetyl-CoA carboxylase inhibitors and uses thereof” (Novartis AG, priority 2010, dated 2014).

Biological target: T1, human acetyl-CoA carboxylase 2 (ACC2) (Homo sapiens, UniProt O00763)
T1 construct: The cDNA encoding amino acids 144 to 2458 of human acetyl-CoA carboxylase 2; made in house; host or cells: Sf9 insect cells (baculovirus, pFastBac1)
Assay: Acetyl-CoA carboxylase enzyme assay (malonyl-CoA formation by LC/MS/MS)
Format: biochemical
Conditions: recombinant human ACC2 (aa 144-2458); read-out: IC50 ACC2
How it was run: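 Malonyl-CoA formation was read by LC/MS/MS MRM against a [13C3]-malonyl-CoA internal standard, after acetic acid quench. The enzyme was baculovirus/Sf9-expressed human ACC2 residues 144–2458, given 15 minutes room-temperature compound preincubation in HEPES pH 7.5 buffer with MgCl2, citrate and DTT. Substrate solution held 50 μM acetyl-CoA, 120 μM ATP and 2 mM KHCO3.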

T1 sequence (O00763 144-2458): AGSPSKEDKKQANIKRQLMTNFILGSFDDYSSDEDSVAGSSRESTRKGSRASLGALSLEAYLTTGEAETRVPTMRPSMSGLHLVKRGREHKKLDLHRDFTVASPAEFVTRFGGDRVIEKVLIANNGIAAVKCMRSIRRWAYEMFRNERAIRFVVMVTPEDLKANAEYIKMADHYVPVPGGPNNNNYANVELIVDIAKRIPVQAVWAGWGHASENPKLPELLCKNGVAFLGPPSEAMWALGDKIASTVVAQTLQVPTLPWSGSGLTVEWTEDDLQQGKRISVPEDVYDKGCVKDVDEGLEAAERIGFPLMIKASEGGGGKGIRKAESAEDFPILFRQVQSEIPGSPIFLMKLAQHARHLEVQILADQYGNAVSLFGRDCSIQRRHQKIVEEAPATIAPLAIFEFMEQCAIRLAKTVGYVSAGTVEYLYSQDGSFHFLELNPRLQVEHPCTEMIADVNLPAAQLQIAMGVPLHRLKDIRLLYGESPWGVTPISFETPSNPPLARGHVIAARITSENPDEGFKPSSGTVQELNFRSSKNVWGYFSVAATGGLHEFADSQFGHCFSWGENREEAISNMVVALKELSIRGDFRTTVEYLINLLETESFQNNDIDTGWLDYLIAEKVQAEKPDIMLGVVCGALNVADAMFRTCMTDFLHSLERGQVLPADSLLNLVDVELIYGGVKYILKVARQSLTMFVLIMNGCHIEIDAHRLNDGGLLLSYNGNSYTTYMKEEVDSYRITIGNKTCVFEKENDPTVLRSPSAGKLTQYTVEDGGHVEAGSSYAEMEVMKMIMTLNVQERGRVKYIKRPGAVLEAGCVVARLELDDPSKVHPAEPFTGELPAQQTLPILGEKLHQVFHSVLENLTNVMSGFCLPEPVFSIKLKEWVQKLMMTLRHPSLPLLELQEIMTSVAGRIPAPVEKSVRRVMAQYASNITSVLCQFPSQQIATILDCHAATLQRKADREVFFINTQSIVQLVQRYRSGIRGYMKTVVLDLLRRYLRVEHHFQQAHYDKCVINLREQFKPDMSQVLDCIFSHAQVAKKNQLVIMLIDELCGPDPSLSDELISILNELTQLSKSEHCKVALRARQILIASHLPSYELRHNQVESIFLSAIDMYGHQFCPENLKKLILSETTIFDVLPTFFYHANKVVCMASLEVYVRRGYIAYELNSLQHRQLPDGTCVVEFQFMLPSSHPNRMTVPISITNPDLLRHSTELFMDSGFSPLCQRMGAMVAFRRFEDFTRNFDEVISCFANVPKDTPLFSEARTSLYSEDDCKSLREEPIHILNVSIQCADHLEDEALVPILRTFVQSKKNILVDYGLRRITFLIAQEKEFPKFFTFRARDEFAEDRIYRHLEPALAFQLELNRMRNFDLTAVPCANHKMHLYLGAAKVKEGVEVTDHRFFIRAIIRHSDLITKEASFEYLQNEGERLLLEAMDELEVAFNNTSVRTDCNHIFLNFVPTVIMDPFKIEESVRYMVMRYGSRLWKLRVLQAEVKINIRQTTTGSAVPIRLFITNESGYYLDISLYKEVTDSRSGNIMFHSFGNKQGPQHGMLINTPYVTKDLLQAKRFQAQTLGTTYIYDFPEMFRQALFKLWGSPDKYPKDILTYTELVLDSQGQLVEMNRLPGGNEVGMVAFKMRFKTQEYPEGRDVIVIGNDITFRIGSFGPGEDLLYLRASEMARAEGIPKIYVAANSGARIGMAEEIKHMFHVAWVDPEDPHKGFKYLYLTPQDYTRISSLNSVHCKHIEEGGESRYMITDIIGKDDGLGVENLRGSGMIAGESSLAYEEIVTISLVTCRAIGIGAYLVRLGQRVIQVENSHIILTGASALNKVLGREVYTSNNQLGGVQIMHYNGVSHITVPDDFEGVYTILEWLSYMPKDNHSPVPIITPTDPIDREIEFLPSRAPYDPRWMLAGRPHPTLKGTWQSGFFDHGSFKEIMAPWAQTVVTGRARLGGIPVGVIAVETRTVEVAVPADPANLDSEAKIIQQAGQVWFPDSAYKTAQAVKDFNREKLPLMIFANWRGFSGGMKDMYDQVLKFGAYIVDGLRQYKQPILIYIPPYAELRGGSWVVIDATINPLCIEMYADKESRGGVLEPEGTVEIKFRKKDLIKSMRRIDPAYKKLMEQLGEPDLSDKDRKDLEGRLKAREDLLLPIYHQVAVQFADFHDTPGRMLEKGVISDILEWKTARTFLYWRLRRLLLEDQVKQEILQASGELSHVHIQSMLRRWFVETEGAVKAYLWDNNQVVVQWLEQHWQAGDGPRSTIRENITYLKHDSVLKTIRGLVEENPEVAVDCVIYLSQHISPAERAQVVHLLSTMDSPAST

First: CC(C)(C)c1nnc([C@H]2CC[C@H](NS(=O)(=O)c3ccc4[nH]c(Nc5cccnc5)nc4c3)CC2)o1 [Example 654, N-((1r,4r)-4-(5-tert-butyl-1,3,4-oxadiazol-2-yl)cyclohexyl)-2-(pyridin-3-ylamino)-1H-benzo[d]imidazole-5-sulfonamide]
Second: COC(=O)c1ccc(-c2nc3cc(S(=O)(=O)N[C@H]4CC[C@H](c5nnc(C(C)(C)C)o5)CC4)ccc3[nH]2)cc1 [Example 652, methyl 4-(5-(N-((1r,4r)-4-(5-tert-butyl-1,3,4-oxadiazol-2-yl)cyclohexyl)sulfamoyl)-1H-benzo[d]imidazol-2-yl)benzoate]
The IC50 of the first is 5.5-fold lower: 158 nM for the first, 869 nM for the second.

Compared with `Cn1c(-c2ccccc2)cc2ccc(S(=O)(=O)N[C@H]3CC[C@H](C(=O)N4CCOC(C)(C)C4)CC3)cc21` [Example 442, N-((1r,4r)-4-(2,2-dimethylmorpholine-4-carbonyl)cyclohexyl)-1-methyl-2-phenyl-1H-indole-6-sulfonamide], `Cn1c(-c2ccccc2)cc2ccc(S(=O)(=O)N[C@H]3CC[C@H](C(=O)N4CCC[C@@H](C(C)(C)O)C4)CC3)cc21` [Example 403, N-((1R,4r)-4-((R)-3-(2-hydroxypropan-2-yl)piperidine-1-carbonyl)cyclohexyl)-1-methyl-2-phenyl-1H-indole-6-sulfonamide] is 4-fold lower in IC50: 40 nM for the first, 10 nM for the second. The second is the more potent here.

Compared with `Cc1ccccc1-c1cc2ccc(S(=O)(=O)N[C@H]3CC[C@H](C(=O)N4CCOC[C@@H]4c4ccccc4)CC3)cc2[nH]1` [Example 326, N-((1S,4r)-4-((S)-3-phenylmorpholine-4-carbonyl)cyclohexyl)-2-o-tolyl-1H-indole-6-sulfonamide], `O=C([C@H]1CC[C@H](NS(=O)(=O)c2cnc3c(c2)NCCS3)CC1)N1CCOCC1c1ccccc1` (stereo partly drawn) [Example 193, N-((1r,4r)-4-(3-phenylmorpholine-4-carbonyl)cyclohexyl)-2,3-dihydro-1H-pyrido[2,3-b][1,4]thiazine-7-sulfonamide] is 22-fold lower in IC50: 325 nM for the first, 15 nM for the second. The second is the more potent here.

Compared with `CC(C)(C)OC(=O)N1CCN(c2ccc(-c3nc4cc(S(=O)(=O)N[C@H]5CC[C@H](C(=O)N6CCOCC6)CC5)ccc4[nH]3)cc2)CC1` [Example 103, tert-butyl 4-(4-(5-(N-((1r,4r)-4-(morpholine-4-carbonyl)cyclohexyl)sulfamoyl)-1H-benzo[d]imidazol-2-yl)phenyl)piperazine-1-carboxylate], `O=C([C@H]1CC[C@H](NS(=O)(=O)c2ccc3[nH]c(-c4ccccc4)nc3c2)CC1)N1CCOCC1` [Example 650, N-((1r,4r)-4-(morpholine-4-carbonyl)cyclohexyl)-2-phenyl-1H-benzo[d]imidazole-5-sulfonamide] is 8-fold higher in IC50: 38 nM for the first, 304 nM for the second. The first is the more potent here.

First: CCN(C)C(=O)[C@H]1CC[C@H](NS(=O)(=O)c2ccc3c(Cl)c(-c4ccc(CCC(=O)O)cc4)n(C)c3c2)CC1 [Example 366, 3-(4-(3-chloro-6-(N-((1r,4r)-4-(ethyl(methyl)carbamoyl)cyclohexyl)sulfamoyl)-1-methyl-1H-indol-2-yl)phenyl)propanoic acid]
Second: CCN(C)C(=O)[C@H]1CC[C@H](NS(=O)(=O)c2ccc3c(Cl)c(-c4ccc(CCC(=O)OC)cc4)n(C)c3c2)CC1 [Example 367, methyl 3-(4-(3-chloro-6-(N-((1r,4r)-4-(ethyl(methyl)carbamoyl)cyclohexyl)sulfamoyl)-1-methyl-1H-indol-2-yl)phenyl)propanoate]
The IC50 of the first is 2-fold lower: 15 nM for the first, 30 nM for the second. The first is the more potent here.

`COC[C@H]1CCCN1C(=O)[C@H]1CC[C@H](NS(=O)(=O)c2ccc3cc(-c4ccccc4)n(C)c3c2)CC1` [Example 408, N-((1R,4r)-4-((R)-2-(methoxymethyl)pyrrolidine-1-carbonyl)cyclohexyl)-1-methyl-2-phenyl-1H-indole-6-sulfonamide] and `Cn1c(-c2ccccc2)cc2ccc(S(=O)(=O)NC3CCC(C(=O)NC4CCCCNC4=O)CC3)cc21` (stereo not drawn) [Example 435, (1r,4r)-4-(1-methyl-2-phenyl-1H-indole-6-sulfonamido)-N-(2-oxoazepan-3-yl)cyclohexanecarboxamide] are the same in IC50: 20 nM for the first, 20 nM for the second.

Compared with `Cc1cc(CO)ccc1-c1cc2ccc(S(=O)(=O)N[C@H]3CC[C@H](C(=O)N4CCN(C(=O)OC(C)(C)C)CC4)CC3)cc2[nH]1` [Example 310, tert-butyl 4-((1r,4r)-4-(2-(4-(hydroxymethyl)-2-methylphenyl)-1H-indole-6-sulfonamido)cyclohexanecarbonyl)piperazine-1-carboxylate], `COc1ccccc1-c1cc2ccc(S(=O)(=O)N[C@H]3CC[C@H](C(=O)N[C@H](C)c4ccc(F)cc4)CC3)cc2[nH]1` [Example 293] is 1.6-fold lower in IC50: 62 nM for the first, 38 nM for the second.

`CC(C)OC(=O)c1ccc(NS(=O)(=O)c2ccc3nc(-c4ccc(OC(C)C)cc4)[nH]c3c2)cc1` [Example 505, isopropyl 4-(2-(4-isopropoxyphenyl)-1H-benzo[d]imidazole-6-sulfonamido)benzoate] and `CC(C)OC(=O)c1ccc(NS(=O)(=O)c2ccc3nc(-c4ccc(C(C)(C)C)cc4)[nH]c3c2)cc1` [Example 512, isopropyl 4-(2-(4-tert-butylphenyl)-1H-benzo[d]imidazole-6-sulfonamido)benzoate] are within 1.5-fold of each other in IC50: 1780 nM for the first, 2290 nM for the second.

Compared with `C[C@@H](NC(=O)[C@H]1CC[C@H](NS(=O)(=O)c2ccc3cc(-c4ccccc4C(F)(F)F)[nH]c3c2)CC1)c1ccc(F)cc1` [Example 329, (1r,4R)-N-((R)-1-(4-fluorophenyl)ethyl)-4-(2-(2-(trifluoromethyl)phenyl)-1H-indole-6-sulfonamido)cyclohexanecarboxamide], `CC(C)Cc1cc2ccc(S(=O)(=O)N[C@H]3CC[C@H](C(=O)N[C@H](C)c4ccc(F)cc4)CC3)cc2[nH]1` [Example 303, (1r,4R)-N-((R)-1-(4-fluorophenyl)ethyl)-4-(2-isobutyl-1H-indole-6-sulfonamido)cyclohexanecarboxamide] is 4.8-fold higher in IC50: 120 nM for the first, 575 nM for the second.

Going from `C[C@@H](NC(=O)[C@H]1CC[C@H](NS(=O)(=O)c2cnc3c(c2)N(C(=O)COCc2ccccc2)CCN3)CC1)c1ccc(F)cc1` [Example 233, (1r,4R)-4-(1-(2-(benzyloxy)acetyl)-1,2,3,4-tetrahydropyrido[3,2-b]pyrazine-7-sulfonamido)-N-((R)-1-(4-fluorophenyl)ethyl)cyclohexanecarboxamide] to `C[C@@H](NC(=O)[C@H]1CC[C@H](NS(=O)(=O)c2cnc3ccccc3c2)CC1)c1ccccc1` [Example 55, (1r,4R)-N-((R)-1-phenylethyl)-4-(quinoline-3-sulfonamido)cyclohexanecarboxamide], the IC50 falls from 965 nM to 134 nM (7.2-fold).

Going from `CC(NC(=O)[C@H]1CC[C@H](NS(=O)(=O)c2ccc3c(c2)N(C)CCC3)CC1)c1cccnc1` (stereo partly drawn) [Example 160, (1r,4r)-4-(1-methyl-1,2,3,4-tetrahydroquinoline-7-sulfonamido)-N-(1-(pyridin-3-yl)ethyl)cyclohexanecarboxamide] to `Cc1nc2cc(S(=O)(=O)N[C@H]3CC[C@H](C(=O)N[C@H](C)c4ccc(F)cc4)CC3)ccc2[nH]1` [Example 663, (1r,4R)-N-((R)-1-(4-fluorophenyl)ethyl)-4-(2-methyl-1H-benzo[d]imidazole-5-sulfonamido)cyclohexanecarboxamide], the IC50 rises from 80 nM to 252 nM (3.1-fold).

`C[C@H](c1ccccc1)N(C)C(=O)[C@H]1CC[C@H](NS(=O)(=O)c2ccc3[nH]c(-c4ccccc4)nc3c2)CC1` [Example 578, (1r,4R)-N-methyl-4-(2-phenyl-1H-benzo[d]imidazole-5-sulfonamido)-N-((R)-1-phenylethyl)cyclohexanecarboxamide] and `CCOc1ccc2cc(S(=O)(=O)N[C@H]3CC[C@H](C(=O)N[C@H](C)c4ccc(F)cc4)CC3)ccc2n1` [Example 36, (1r,4R)-4-(2-ethoxyquinoline-6-sulfonamido)-N—((R)-1-(4-fluorophenyl)ethyl)cyclohexanecarboxamide] are within 1.5-fold of each other in IC50: 61 nM for the first, 50 nM for the second.

Compared with `C[C@@H](NC(=O)[C@]1(C)CC[C@@H](NS(=O)(=O)c2cnc3c(c2)NCCN3)CC1)c1ccc(F)cc1` [Example 197, (1r,4R)-N-((R)-1-(4-fluorophenyl)ethyl)-1-methyl-4-(1,2,3,4-tetrahydropyrido[3,2-b]pyrazine-7-sulfonamido)cyclohexanecarboxamide], `C[C@@H](OC(=O)C1(C)CCC(NS(=O)(=O)c2ccc3c(ccn3C)c2)CC1)c1ccccc1` (stereo partly drawn) [Example 398, (R)-1-phenylethyl 1-methyl-4-(1-methyl-1H-indole-5-sulfonamido)cyclohexanecarboxylate] is lower in IC50: 40 nM for the first, under 10 nM for the second. The second is the more potent here.

First: CC(C)c1nnc([C@H]2CC[C@H](NS(=O)(=O)c3ccc4[nH]c(-c5ccc(N6CCN(C)CC6)cc5)nc4c3)CC2)o1 [Example 587, N-((1r,4r)-4-(5-isopropyl-1,3,4-oxadiazol-2-yl)cyclohexyl)-2-(4-(4-methylpiperazin-1-yl)phenyl)-1H-benzo[d]imidazole-5-sulfonamide]
Second: COCCc1ccc(-c2cc3ccc(S(=O)(=O)N[C@H]4CC[C@H](C(=O)N5CCOC[C@@H]5C5CC5)CC4)cc3n2C)cc1 [Example 457, N-((1S,4r)-4-((S)-3-cyclopropylmorpholine-4-carbonyl)cyclohexyl)-2-(4-(2-methoxyethyl)phenyl)-1-methyl-1H-indole-6-sulfonamide]
The IC50 of the first is higher: 294 nM for the first, under 10 nM for the second. The second is the more potent here.

Compared with `O=C([C@H]1CC[C@H](NS(=O)(=O)c2cnc3c(c2)NCCS3)CC1)N1CCNC[C@@H]1c1ccccc1` [Example 192, N-((1S,4r)-4-((S)-2-phenylpiperazine-1-carbonyl)cyclohexyl)-2,3-dihydro-1H-pyrido[2,3-b][1,4]thiazine-7-sulfonamide], `CC(C)OC(=O)c1ccc(NS(=O)(=O)c2ccc3[nH]c(Nc4ccc([N+](=O)[O-])cc4)nc3c2)cc1` [Example 550, isopropyl 4-(2-(4-nitrophenylamino)-1H-benzo[d]imidazole-5-sulfonamido)benzoate] is 16-fold higher in IC50: 15 nM for the first, 240 nM for the second.
